According to patent US10046020B2, “Inflammation inhibiting compounds” (priority 2001, dated 2018):
Square brackets hold non-standard residues; d marks the D form. Peptide text beside a SMILES is read from it.

Tests used:
HDMEC = experiment: Lymphocyte adhesion assay (51Cr-labeled lymphocytes on endothelial cell layers); assay type: cell-based, human; conditions: molt4 T lymphocytes, JY B lymphocytes
Experimental: (§1) Human dermal microvascular endothelial cells (HDMEC) and the cell line HMEC-1 (human microvascular endothelial cell line 1) were treated either with TNFα or LPS in the presence or absence of one of the peptides. The cells were harvested for RNA isolation after 3 and after 6 hours after treatment or harvested either for adhesion molecule ETA or FACS analysis 3, 6, 16 or 24 hours after treatment. RNA underwent reverse transcription, and samples were subjected to a PCR for E selectin, ICAM-1, VCAM or for β-actin as housekeeping gene in order to carry out a semiquantitative determination. For the lymphocyte adhesion assay, the endothelial cells were seeded in dishes and incubated with ^51Cr-labeled lymphocytes. After a washing step, the amount of remaining lymphocytes bound to the EC layer was determined by measuring the radioactivity in the samples.

[1] = tested on: mice with Imiquimod-induced psoriasis-like skin inflammation; experiment: Imiquimod-induced psoriasis-like disease in mice; assay type: in vivo
[2] = tested on: PBMC from the blood of psoriasis patients; experiment: Regulatory T cells in PBMC from blood of psoriasis patients; assay type: cell-based, human
human PBMC = experiment: IL-10 secretion by human PBMC (ELISA); assay type: cell-based; conditions: for IL-10 production: 24 hours, αMSH 10^−11 M, KPV and KPT 10^−8 to 10^−9M; for production of IL-10: 48 hours
Experimental: Mononuclear cells (PBMC) were separated from human buffy coats by Ficoll Hypaque density gradient centrifugation. Cells (1×10^6 per ml), cultivated in RPMI 1640 with antibiotics and 10% FCS, were either not treated or stimulated with αMSH or the peptides KPV or KPT with or without IL-1β (10 U/ml). The supernatants of the PBMC cultures were collected after incubation for 24 or 48 hours and stored at −20° C. until used further. A commercially available ELISA was employed to detect IL-10.

LPS-treated mice = experiment: LPS-induced localized vasculitis in mice (E selectin, petechial lesions); assay type: in vivo; conditions: αMSH 25 μg at the time of the preparatory LPS injection
Experimental: Mice were treated with LPS by s.c. injection on one ear. This preparatory injection induces a long-lasting rise in E selectin expression at the site of the LPS injection. 24 hours later, a second LPS dose was injected i.p. (challenge). This second LPS injection leads to rapid vessel necrolysis and to the formation of petechial lesions which are easily measurable because of their size and number. αMSH (25 μg) was administered at the time of the preparatory LPS injection.

[3] = tested on: bone marrow dendritic cells (BMDC); experiment: CHS and tolerance after injection of BMDC treated in vitro with hapten and αMSH or KP; assay type: in vivo, mice; conditions: for immune response at second challenge after resensitization (tolerance): recipients of hapten- and peptide-treated BMDC; for CHS reaction at first challenge in recipients of hapten- and peptide-treated BMDC: αMSH 2×10^−11 M or KP 2×10^−6M in vitro, cells i.v.
Experimental: Bone marrow dendritic cells (BMDC) were isolated from the femoral bones of mice and treated with IL-4 and GMCSF for 6 or 9 days. On day 6 or 9, the cells were treated with αMSH (2×10^−11 M) or the peptide KP (2×10^−6M) 3 hours and 2.5 hours before reinjection into naive mice with the same genetic background. 2 hours before reinjection, the cells were treated with hapten (1 mM DNBS, the water-soluble form of DNFB). Immediately before the reinjection, the cells were washed 2× with PBS. […] were injected i.v. into each animal. Control cells were treated either with DNBS alone or with αMSH alone or were left untreated. 5 days after injection, the animals were contacted with DNFB on the ear, and the ear thickness was measured the next day. 2 weeks later, the animals were resensitized with DNFB and again recontacted on the ear 5 days later. Finally, the auricular swelling was measured.

T cells / DC = experiment: T cells contacted in vitro with antigen-loaded, αMSH or derivative-treated DC; assay type: in vivo, mouse; conditions: FIG. 15
[4] = tested on: E selectin, ICAM-1, VCAM in HDMEC and HMEC-1; experiment: Expression of adhesion molecules in LPS- or TNFα-treated endothelial cells (RT-PCR, EIA, FACS); assay type: cell-based, human; conditions: 10^−6 to 10^−12 M
Experimental: as §1

[5] = tested on: sensitised recipient mice (Hapten: DNFB); experiment: Reinjection of CD4+ T-cells contacted with peptide-treated DC into DNFB-sensitised mice; assay type: in vivo; conditions: 1×10^6 cells
Balb/C mice = experiment: CHS sensitization and tolerance after i.v. injection of αMSH or peptides (DNFB); conditions: for inhibition of CHS response to DNFB exposure 7 days after sensitization (auricular swelling): i.v. 2 hours before sensitization, 5 μg αMSH or 1.5 μg peptide (KP: 50 μg) per mouse; for auricular swelling response after second sensitization and hapten exposure (tolerance to DNFB): injected i.v. before the first sensitization only
Experimental: 7 to 10 week old female Balb/C mice were obtained from Charles River (Sulzfeld, Germany) and kept in compliance with government regulations.
Before the injection, the particular compound was dissolved in PBS, 0.1% mouse serum, and stored on ice until injected i.v. into the tail vein of the mice.
The mice were sensitized by spreading 75 μl of 0.5% DNFB in acetone/olive oil (4:1) on the shaven abdomen of naive mice. CHS was induced by applying 10 μl of 0.3% DNFB to the ears of the mice on both sides of one ear. CHS was determined by the degree of auricular swelling of the hapten-exposed ear compared with the other, control-treated ear and was measured using spring-loaded dividers 24 hours after hapten exposure. Mice whose ears were exposed to hapten without previous sensitization served as negative controls.

CD4+-T-cells = experiment: CD4+ T-cells after contact with peptide-treated DC in vitro; assay type: cell-based
[6] = biological target: T1, melanocortin receptor on THP-1 cells (MC-1) (Homo sapiens, UniProt Q01726); experiment: Competition with biotin-labeled αMSH for binding sites on THP-1 cells (FACS); conditions: unlabeled competitor 10^−6 M; biotin-labeled αMSH 10^−10 M
T1 construct: endogenous in cells; host or cells: THP-1 monocytic cell line (unstimulated, whole cells)
Experimental: All the steps were carried out at 0 to 4° C. The monocytic cell line THP-1 was washed once in PBS, once one acidic glycine buffer (50 mM glycine, 100 mM sodium chloride, pH 3) and three times with RPMI. The cells 2.5×10^6 per ml) were then resuspended in 100 μl of RPMI/1% BSA and transferred into 96-well microtiter plates. […] After a last washing step, the cells were resuspended in PBS. […] Dead cells were excluded by adding propidium iodide shortly before the FACS analysis.

[7] = tested on: BNX mice transplanted with skin from psoriatic human donors; experiment: Psoriasis transplant model (human psoriatic skin on BNX mice); assay type: in vivo; conditions: FIG. 25B; KdPT i.p. 10 μg/d, three weeks
Experimental: Immunodeficient mice (BNX mice) were transplanted with skin from psoriatic human donors. Animals with viable transplant were injected with PBMCs from the same donor, resulting in appearance of a psoriatic phenotype within the transplant. Animals were treated as follows:
Group 1: Betamethasone, topically, 2× daily, Group 2: Vehicle, i.p. 100 μL/d, Group 3: KdPT i.p. 1 μg/d, Group 4: KdPT i.p. 10 μg/d, all treatments were kept up for three weeks.
As shown in FIGS. 25A and 25B, immunodeficient mice (BNX mice) were transplanted with skin from psoriatic donors. Animals with viable transplant were injected with PBMCs from the same donor, resulting in appearance of a psoriatic phenotype within the transplant. Animals were treated as follows:
Group 1: Vehicle, i.p. 100 μL/d, Group 2: Betamethasone, topically, 2× daily, Group 3: KdPT i.p. 10 μg/d, all treatments were kept up for three weeks.

T1 sequence (Q01726 whole entry): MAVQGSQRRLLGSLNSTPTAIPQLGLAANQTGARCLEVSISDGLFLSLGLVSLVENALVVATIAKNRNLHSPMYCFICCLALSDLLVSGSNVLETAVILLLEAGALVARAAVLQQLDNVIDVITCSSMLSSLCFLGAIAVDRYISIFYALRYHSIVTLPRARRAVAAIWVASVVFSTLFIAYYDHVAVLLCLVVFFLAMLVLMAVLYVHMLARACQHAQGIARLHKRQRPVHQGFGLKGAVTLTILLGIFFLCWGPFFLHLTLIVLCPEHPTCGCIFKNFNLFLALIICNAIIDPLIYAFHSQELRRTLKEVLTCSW

| Compound | binding of T and B cells to LPS- or TNF-αMSH-treated EC layers (HDMEC) | number of regulatory CD4+CD25+Foxp3+ T cells ([1]; flow cytometry) | expression of regulatory T cells markers ([1]; qRT-PCR) | expression of Th17 markers ([1]; quantitative RT-PCR) | expression of Foxp3 and IL-10 in regulatory T cells [2] | expression of IFN-γ in regulatory T cells [2] | IL-10 production (human PBMC) | production of IL-10 (human PBMC) | number and size of petechial lesions after challenge injection of LPS (LPS-treated mice) | immune response at second challenge after resensitization (tolerance) [3] | CHS reaction at first challenge in recipients of hapten- and peptide-treated BMDC [3] | induction of tolerance by T cells contacted in vitro with antigen-loaded, treated DC (T cells / DC) | inhibition of LPS- or TNFα-induced expression of adhesion molecules (mRNA) [4] | effect of reinjected CD4+ T-cells on contact allergy [5] | inhibition of CHS response to DNFB exposure 7 days after sensitization (auricular swelling) (Balb/C mice) | auricular swelling response after second sensitization and hapten exposure (tolerance to DNFB) (Balb/C mice) | effect of co-cultured CD4+ T-cells on proliferation of CD4+CD25− responder T-cells (CD4+-T-cells) | suppression of biotin-labeled αMSH binding [6] | weight loss as compared to treatment with betamethasone [7] |
| --- | --- | --- | --- | --- | --- | --- | --- | --- | --- | --- | --- | --- | --- | --- | --- | --- | --- | --- | --- |
| α-melanocyte-stimulating hormone [αMSH] | significantly reduces | increased numbers | increased expression | Reduced Expression | upregulated | downregulated substantially | evidently induced IL-10 production | significantly increased | significantly reduces | no immune response | suppressed | induction of tolerance | inhibited | suppressive effect on contact allergy | inhibits | inhibited the auricular swelling response very greatly | suppressive effect on the proliferation | – | – |
| Lys-Pro [KP] | – | – | – | – | – | – | – | – | – | can induce tolerance | suppressed | – | – | – | inhibits | inhibited the auricular swelling response very greatly | – | – | – |
| Lys-Pro-Val [KPV] | – | – | – | – | – | – | evidently induced IL-10 production | significantly increased | – | – | – | – | – | suppressive effect on contact allergy | inhibits | weak effect | suppressive effect on the proliferation | significant inhibition | – |
| C[C@@H](O)[C@H](NC(=O)[C@H]1CCCN1C(=O)[C@@H](N)CCCCN)C(=O)O [KdPT, (L)Lys-(D)Pro-(L)Thr] (H-Lys-[dP]-Thr-OH) | – | – | – | – | – | – | – | – | – | – | – | – | – | – | – | – | – | – | does not result in weight loss |
